What was measured:
[1] = biological target: T1, human CaV1.2 (Homo sapiens, UniProt Q13936); test: QPatch channel biophysics assay (channel gating, V1/2 of activation, inactivation) in CaV1.2-HEK293(AUX) cells; type: cell-based; conditions: Table 10 comparative examples
T1 construct: expressed in transfected cells; host or cells: Flp-In 293 T-Rex (HEK293), monoclonal CaV1.2-HEK293(AUX) clone 2-19B; doxycycline-induced auxiliary subunits
Excerpt: (§1) The monoclonal CaV1.2-HEK293(AUX) cell line constitutively expresses human CaV1.2 alpha1C (α1C) subunit (CACNA1C) and has doxycycline-inducible expression of the alpha2delta (α2Δ2) auxiliary subunit (CACNA2D2) and beta2 (02) auxiliary subunit (CACNB2). To generate the cell line, expression vectors pcDNA5.0/FRT-TO-CACNA2D2-FCS-P2A-CACNB2 and pCMV6-entry-CACNA1C were established via gene synthesis and cloning. Here, pcDNA5.0/FRT-TO plasmid is from Invitrogen, pCMV6-entry is from Origene, FCS stands for Furin Cleavage Site, P2A is a peptide self-cleavage sequence derived from porcine teschovirus-1, and FRT is the Flippase recognition target site. Next, parental line Flp-In™ 293 T-Rex (Invitrogen) was transfected with pcDNA5.0/FRT-TO-CACNA2D2-FCS-P2A-CACNB2 and Flippase vector pOG44 (Invitrogen) to establish targeted integration of the CACNA2D2-FCS-P2A-CACNB2 expression cassette into the pre-engineered FRT site in Flp-In™ 293 T-Rex. This intermediate cell line was then transfected with pCMV6-entry-CACNA1C to establish stable CACNA1C expression. Clonal isolation was achieved under Neomycin selection. A cell clone (2-19B) with good voltage-dependent Barium current (see electrophysiology methods below) was selected for characterization of CaV1.2 activators.
(§2) 24 hours prior an electrophysiology experiment, doxycycline (1 μg/ml) was added to the growth medium (Table 6), and 25 μM of verapamil was co-applied to prevent calcium influx triggered cell death. Cell confluency should reach 70%-80% right before the experiment. To harvest cells (from a T175 cm^2 flask as an example), growth media were removed completely, and the cells were rinsed with 10 mL of D-PBS. D-PBS was aspirated, and 10 mL of Detachin (Genlantis) was added and the plate was placed in a 37° C. incubator for 10 minutes. Detached cells were placed into a 15 mL conical tube and spun at 1000 rpm for 2 minutes. Supernatant was removed, and cells were re-suspended in QPatch complete media (Table 7) to desired cell density of 1.5-3 million cells per QPatch run. Each experimental run uses 1.5 mL of cells.
The cells suspension was taken to the Sophion QPatch platform that uses whole-cell voltage clamp to measure barium currents conducted through CaV1.2 on single-hole QPlates. Extracellular and intracellular patch clamp solutions are described in Tables 7 and 8, respectively. A dose-response assay protocol was used to determine the maximal fold change of peak inward current (Emax) and potency (EC50) of each compound. The protocol had eight liquid periods. The first liquid period was to stabilize current amplitude, which was monitored using repetitive 200-ms voltage pulses stepping from −80 mV to 0 mV. The second liquid period was to determine baseline current amplitude in the presence of vehicle control, using a single 20-ms voltage pulse stepping from −80 mV to 0 mV. The third through eighth liquid periods were used to ascertain a 6-dose response to compound treatments, also using single 20-ms voltage pulses stepping from −80 mV to 0 mV. The EC50 was generated using the following equation Iconcentration=Ibase+(Ifull−Ibase)*c^n/(XC50^n+c^n), where c is the concentration and n is the Hill coefficient constant. Ifull is the maximal current achievable, and Ibase is 0. A channel biophysics assay protocol was used to determine channel gating properties including current-voltage relationship (IV curves), half-way channel activation voltage (V1/2), rate of channel inactivation (tau), and amplitude of tail current. Among these, V1/2 was derived from fitting equation G(V)=Gvmin+(Gvmax−Gvmin)/(1+exp(−(V−V½)/Vslope)), where G stands for conductance, Gvmin equals 0, Gvmax is the maximal conductance, and Vslope is a slope factor. G(V) was pre-calculated from equation G(V)=I(V)/(V−0.06), for each experimentally applied depolarization potential (V) and the corresponding current amplitude (I(V)), and 0.06 in the equation was the experimentally determined reversal potential in volts. […]

[2] = Compound exposure in wild-type mice (brain and blood levels); type: in vivo, C57BL/6J male mice; conditions: male, C57BL/6J, mouse, brain (cerebellum) / blood, intraperitoneal, Table 10 comparative examples; read-out: Brain:blood ratio
Description: Compound administration and brain tissue collection. Wild-type C57BL/6J male mice were obtained from Jackson laboratories (Bar Harbor, ME). The acute, single-dose effects of CaV1.2 activators of the present disclosure were evaluated in male eight-week old mice (n=6 mice per compound). Each compound was dissolved in 10% PEG300, 10% Solutol, 10% Cremophore EL, and 70% Phosphate Buffered Saline and administered intraperitoneal (i.p.) at a concentration of 1 mg/kg up to 30 mg/kg depending on the compound. Animals were euthanized one hour after compound administration via exsanguination under deep anesthesia. Blood was collected in EDTA tubes for downstream analysis of drug levels. Brains were rapidly removed from the skull, and the cerebral cortex and cerebellum were regionally dissected. Cerebellar samples were snap frozen in liquid nitrogen to assess compound exposure. Cortical samples for cFos assessment were placed in 500 μl of RNAlater solution (ThermoFisher) to preserve the integrity of RNA in the sample. Samples remained in RNAlater for at least 24 hours at 4° C. before moving to −80° C. for storage before processing.
Quantification of compound exposure. Cerebellar tissue samples were homogenized in 4 ml of 20% acetonitrile and 80% Phosphate buffered saline for every 1 g of tissue (5× dilution). Tissue was homogenized using either of the following three methods: hand held probe system, TissueLyser system with 5 mm steel bead at a frequency of 30 s^−1 for 4 min, or OMNI Bead Ruptor Elite homogenizer for 30 seconds to 1 minute depending on tissue type. Tissue samples were added to a 96-well plate (12.5 uL sample) and processed for quantification by mass spectrometry.

[3] = biological target: T1, human CaV1.2; test: Sophion QPatch dose-response assay, whole-cell voltage clamp of barium currents in CaV1.2-HEK293(AUX) cells; type: cell-based; conditions: Table 10 comparative examples; maximal fold change of peak inward current
Excerpt: as §1, with “selection.” for “selection. A cell clone (2-19B) with good voltage-dependent Barium current (see electrophysiology methods below) was selected for characterization of CaV1.2 activators.”
Electrophysiological Characterization of CaV1.2 Activators Using CaV1.2-HEK293(AUX) Cell Line and QPatch
as §2
The cells suspension was taken to the Sophion QPatch platform that uses whole-cell voltage clamp to measure barium currents conducted through CaV1.2 on single-hole QPlates. Extracellular and intracellular patch clamp solutions are described in Tables 7 and 8, respectively. A dose-response assay protocol was used to determine the maximal fold change of peak inward current (Emax) and potency (EC50) of each compound. The protocol had eight liquid periods. The first liquid period was to stabilize current amplitude, which was monitored using repetitive 200-ms voltage pulses stepping from −80 mV to 0 mV. The second liquid period was to determine baseline current amplitude in the presence of vehicle control, using a single 20-ms voltage pulse stepping from −80 mV to 0 mV. The third through eighth liquid periods were used to ascertain a 6-dose response to compound treatments, also using single 20-ms voltage pulses stepping from −80 mV to 0 mV. The EC50 was generated using the following equation Iconcentration=Ibase+(Ifull−Ibase)*c^n/(XC50^n+c^n), where c is the concentration and n is the Hill coefficient constant. Ifull is the maximal current achievable, and Ibase is 0. A channel biophysics assay protocol was used to determine channel gating properties including current-voltage relationship (IV curves), half-way channel activation voltage (V1/2), rate of channel inactivation (tau), and amplitude of tail current. Among these, V1/2 was derived from fitting equation G(V)=Gvmin+(Gvmax−Gvmin)/(1+exp(−(V−V½)/Vslope)), where G stands for conductance, Gvmin equals 0, Gvmax is the maximal conductance, and Vslope is a slope factor. G(V) was pre-calculated from equation G(V)=I(V)/(V−0.06), for each experimentally applied depolarization potential (V) and the corresponding current amplitude (I(V)), and 0.06 in the equation was the experimentally determined reversal potential in volts. The protocol had four liquid periods.

[4] = Hygroscopicity / water sorption of crystalline hydrates versus relative humidity; type: physicochemical

T1 sequence (Q13936 1-2138 isoform Q13936-23): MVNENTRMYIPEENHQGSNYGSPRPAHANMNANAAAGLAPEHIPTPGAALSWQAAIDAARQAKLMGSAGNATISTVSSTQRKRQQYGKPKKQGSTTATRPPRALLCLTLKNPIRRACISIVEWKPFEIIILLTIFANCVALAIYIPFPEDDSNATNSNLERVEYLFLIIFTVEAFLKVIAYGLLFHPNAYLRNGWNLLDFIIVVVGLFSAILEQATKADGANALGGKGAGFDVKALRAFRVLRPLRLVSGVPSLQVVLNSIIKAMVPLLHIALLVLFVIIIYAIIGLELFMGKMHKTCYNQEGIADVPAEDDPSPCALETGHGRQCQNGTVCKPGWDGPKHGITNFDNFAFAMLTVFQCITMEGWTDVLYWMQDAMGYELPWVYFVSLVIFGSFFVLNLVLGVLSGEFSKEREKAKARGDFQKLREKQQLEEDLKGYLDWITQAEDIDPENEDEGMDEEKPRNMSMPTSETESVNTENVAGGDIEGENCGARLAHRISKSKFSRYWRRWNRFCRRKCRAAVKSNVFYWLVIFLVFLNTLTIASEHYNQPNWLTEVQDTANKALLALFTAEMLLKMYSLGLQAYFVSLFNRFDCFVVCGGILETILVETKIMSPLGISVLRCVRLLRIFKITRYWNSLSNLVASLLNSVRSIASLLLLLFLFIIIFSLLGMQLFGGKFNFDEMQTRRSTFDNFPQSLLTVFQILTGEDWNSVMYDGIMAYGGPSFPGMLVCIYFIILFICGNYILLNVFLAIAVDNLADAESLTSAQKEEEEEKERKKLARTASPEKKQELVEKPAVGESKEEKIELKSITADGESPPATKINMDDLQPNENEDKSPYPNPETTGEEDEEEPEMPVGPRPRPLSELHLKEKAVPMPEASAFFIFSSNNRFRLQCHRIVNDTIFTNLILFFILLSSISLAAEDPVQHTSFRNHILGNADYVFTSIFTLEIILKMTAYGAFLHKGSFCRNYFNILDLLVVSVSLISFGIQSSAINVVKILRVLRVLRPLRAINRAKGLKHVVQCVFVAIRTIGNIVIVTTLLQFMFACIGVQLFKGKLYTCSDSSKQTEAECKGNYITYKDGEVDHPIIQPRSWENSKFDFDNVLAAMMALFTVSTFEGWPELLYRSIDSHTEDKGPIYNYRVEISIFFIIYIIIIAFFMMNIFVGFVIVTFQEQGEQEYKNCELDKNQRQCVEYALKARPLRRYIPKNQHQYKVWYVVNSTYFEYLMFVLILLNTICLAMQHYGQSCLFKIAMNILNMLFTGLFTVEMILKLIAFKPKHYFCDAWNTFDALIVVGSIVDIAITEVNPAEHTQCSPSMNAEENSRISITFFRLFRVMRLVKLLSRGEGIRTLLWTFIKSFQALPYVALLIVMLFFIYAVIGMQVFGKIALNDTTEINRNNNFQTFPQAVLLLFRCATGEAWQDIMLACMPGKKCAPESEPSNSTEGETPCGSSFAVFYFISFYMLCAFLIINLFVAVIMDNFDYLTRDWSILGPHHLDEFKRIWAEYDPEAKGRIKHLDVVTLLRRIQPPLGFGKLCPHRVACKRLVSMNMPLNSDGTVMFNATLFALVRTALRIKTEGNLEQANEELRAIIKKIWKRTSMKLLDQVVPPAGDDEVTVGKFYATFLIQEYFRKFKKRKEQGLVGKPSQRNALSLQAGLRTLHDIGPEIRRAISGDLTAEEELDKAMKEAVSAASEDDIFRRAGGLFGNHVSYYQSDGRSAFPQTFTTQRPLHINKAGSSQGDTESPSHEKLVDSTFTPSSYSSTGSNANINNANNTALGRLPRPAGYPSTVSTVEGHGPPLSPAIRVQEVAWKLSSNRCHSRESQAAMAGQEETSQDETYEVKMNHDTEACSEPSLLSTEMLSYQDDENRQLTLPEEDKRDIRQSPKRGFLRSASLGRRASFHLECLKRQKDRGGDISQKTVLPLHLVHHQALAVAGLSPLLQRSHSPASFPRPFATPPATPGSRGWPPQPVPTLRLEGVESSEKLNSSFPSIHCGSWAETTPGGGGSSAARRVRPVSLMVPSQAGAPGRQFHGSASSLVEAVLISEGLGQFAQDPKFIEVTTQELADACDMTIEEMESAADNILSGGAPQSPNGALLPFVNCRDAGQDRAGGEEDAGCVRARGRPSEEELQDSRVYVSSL
T1 sequence (Q9NY47 19-1001 partner limits assumed): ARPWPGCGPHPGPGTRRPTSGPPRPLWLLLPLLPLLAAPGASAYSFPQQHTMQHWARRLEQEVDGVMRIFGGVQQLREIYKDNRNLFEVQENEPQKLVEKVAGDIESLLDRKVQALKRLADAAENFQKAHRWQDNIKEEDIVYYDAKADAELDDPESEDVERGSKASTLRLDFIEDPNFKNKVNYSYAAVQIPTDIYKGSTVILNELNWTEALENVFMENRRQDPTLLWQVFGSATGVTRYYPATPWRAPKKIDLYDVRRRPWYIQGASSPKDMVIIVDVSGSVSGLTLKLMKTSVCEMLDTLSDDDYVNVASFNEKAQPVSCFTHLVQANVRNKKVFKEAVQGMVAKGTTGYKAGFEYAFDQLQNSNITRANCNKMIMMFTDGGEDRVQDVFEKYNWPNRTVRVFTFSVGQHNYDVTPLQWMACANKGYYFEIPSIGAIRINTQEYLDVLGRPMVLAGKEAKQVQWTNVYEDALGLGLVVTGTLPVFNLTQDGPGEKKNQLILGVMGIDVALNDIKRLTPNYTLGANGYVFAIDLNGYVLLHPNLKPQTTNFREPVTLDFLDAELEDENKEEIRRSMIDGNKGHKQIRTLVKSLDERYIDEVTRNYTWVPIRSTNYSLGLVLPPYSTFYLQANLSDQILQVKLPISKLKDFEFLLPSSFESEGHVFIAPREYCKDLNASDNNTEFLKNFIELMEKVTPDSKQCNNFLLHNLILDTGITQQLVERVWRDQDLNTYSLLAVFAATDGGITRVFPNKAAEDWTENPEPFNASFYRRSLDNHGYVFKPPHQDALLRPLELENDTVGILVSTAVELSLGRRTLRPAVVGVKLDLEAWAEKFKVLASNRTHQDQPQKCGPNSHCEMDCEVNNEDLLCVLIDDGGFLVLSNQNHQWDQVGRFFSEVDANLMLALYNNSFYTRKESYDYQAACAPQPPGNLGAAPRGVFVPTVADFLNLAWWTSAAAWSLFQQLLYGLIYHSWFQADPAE
T1 sequence (Q9NY47 1002-1150 partner limits assumed): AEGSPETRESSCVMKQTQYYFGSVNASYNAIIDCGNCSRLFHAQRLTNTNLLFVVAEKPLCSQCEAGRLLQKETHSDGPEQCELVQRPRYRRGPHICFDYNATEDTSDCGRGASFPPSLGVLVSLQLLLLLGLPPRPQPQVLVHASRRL
T1 sequence (Q08289 whole entry partner): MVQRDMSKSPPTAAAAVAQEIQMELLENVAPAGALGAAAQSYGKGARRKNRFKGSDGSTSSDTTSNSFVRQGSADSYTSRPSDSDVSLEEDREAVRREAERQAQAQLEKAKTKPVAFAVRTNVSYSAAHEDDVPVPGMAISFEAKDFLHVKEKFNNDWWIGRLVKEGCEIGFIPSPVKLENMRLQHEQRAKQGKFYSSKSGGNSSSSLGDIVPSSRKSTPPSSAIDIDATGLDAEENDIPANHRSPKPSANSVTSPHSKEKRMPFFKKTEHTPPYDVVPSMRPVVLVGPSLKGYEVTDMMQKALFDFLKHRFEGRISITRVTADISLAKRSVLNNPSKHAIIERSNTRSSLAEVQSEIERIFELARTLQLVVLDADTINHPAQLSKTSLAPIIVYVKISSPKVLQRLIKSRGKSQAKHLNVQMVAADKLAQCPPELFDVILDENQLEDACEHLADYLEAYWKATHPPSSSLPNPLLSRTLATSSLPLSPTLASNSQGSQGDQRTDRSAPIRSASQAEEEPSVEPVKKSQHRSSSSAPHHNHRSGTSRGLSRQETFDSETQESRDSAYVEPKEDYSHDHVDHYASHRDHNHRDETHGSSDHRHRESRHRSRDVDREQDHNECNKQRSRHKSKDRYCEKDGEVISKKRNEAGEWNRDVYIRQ

With CCOC(=O)C1=C(C)NC2=C(C(=O)OC2)[C@H]1c1ccccc1OC(F)F (single isomer, unassigned) [CGP028392, reference compound] the “Biophysics voltage shift (mV)” value [1] was −6.7 mV, the Kp at 1 h [2] was 0.23 and the “Qpatch Emax” value [3] was 2.2.

In the case of COC(=O)C1=C(CF)NC2=C(C(=O)OC2)[C@H]1c1cccc(F)c1[C@@H](C)F [Hydrate A, methyl (R)-4-(3-fluoro-2-((R)-1-fluoroethyl)phenyl)-2-(fluoromethyl)-5-oxo-1,4,5,7-tetrahydrofuro[3,4-b]pyridine-3-carboxylate], the hygroscopicity [4] is reported as “slightly hygroscopic” and the water uptake ([4]; between 10% to 95% RH at 25° C.) is reported as “about 0.2%”.

For COC(=O)C1=C(CF)NC2=C(C(=O)OC2)[C@H]1c1cccc(F)c1[C@@H](C)F [Hydrate B, methyl (R)-4-(3-fluoro-2-((R)-1-fluoroethyl)phenyl)-2-(fluoromethyl)-5-oxo-1,4,5,7-tetrahydrofuro[3,4-b]pyridine-3-carboxylate], the “water uptake upon subsequent increase of the relative humidity” value ([4]; 25° C.) was “about 3%” and the “loss of water on dehydration” value ([4]; starts below 20% RH, until 0% RH) was “about 4.4%”.

Source: patent publication US20250304594A1, “METHYL (R)-2-(FLUOROMETHYL)-5-OXO-4-PHENYL-4,5,6,7-TETRAHYDRO-1H-CYCLOPENTA[B]PYRIDINE-3-CARBOXYLATE AND METHYL (R)-2-(FLUOROMETHYL)-5-OXO-4-PHENYL-1,4,5,7-TETRAHYDROFURO[3,4-B]PYRIDINE-3-CARBOXYLATE AS Cav1,2 ACTIVATORS” (Novartis AG, priority 2020, published 2025)
